Measured values from ChEMBL document CHEMBL1201862, “PubChem BioAssay data set” (2004).
Several values for one entry are separate records, joined by “and”; a condition that tells them apart may be missing. Equal values may be shown once.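 Step 1: Grow cells in 96-well plates. Step 2: Expose to compound for 48 hours at 5 concentrations. Step 3: Interpolate endpoints linearly; if unreached, use highest concentration. Abbreviation: GI50, concentration required for 50% inhibition of growth.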 Activity calls are given as the source filed them. Cut-off read from the data, not from the text of the source: active = GI50 up to about 1.1 µM and inactive = higher.

Columns and labels:
Assay in all cases: NCI tumour cell line growth inhibition, 48 h
UACC-257 = tested on: UACC-257
HL-60 = tested on: HL-60
UO-31 = tested on: UO-31
SF-268 = tested on: SF-268
SF-295 = tested on: SF-295
CCRF-CEM = tested on: CCRF-CEM
DLD-1 = tested on: DLD-1
SNB-75 = tested on: SNB-75
KM-20L2 = tested on: KM-20L2
HCC 2998 = tested on: HCC 2998
SK-MEL-2 = tested on: SK-MEL-2
HCT-15 = tested on: HCT-15
ACHN = tested on: ACHN
TK-10 = tested on: TK-10
OVCAR-3 = tested on: OVCAR-3
XF498 = tested on: XF498
SK-MEL-28 = tested on: SK-MEL-28
M19-MEL = tested on: M19-MEL
K562 = tested on: K562
LXFL 529 = tested on: LXFL 529
RPMI-8226 = tested on: RPMI-8226
A549 = tested on: A549
COLO 205 = tested on: COLO 205
OVCAR-4 = tested on: OVCAR-4
CAKI-1 = tested on: CAKI-1
NCI-H460 = tested on: NCI-H460
HCT-116 = tested on: HCT-116
NCI-H226 = tested on: NCI-H226
UACC-62 = tested on: UACC-62
M14 = tested on: M14
HT-29 = tested on: HT-29
SF-539 = tested on: SF-539
DMS-273 = tested on: DMS-273
MOLT-4 = tested on: MOLT-4
786-0 = tested on: 786-0
Malme-3M = tested on: Malme-3M
KM12 = tested on: KM12
SW-620 = tested on: SW-620
DMS-114 = tested on: DMS-114
NCI-H522 = tested on: NCI-H522
OVCAR-5 = tested on: OVCAR-5
U-251 = tested on: U-251
SK-MEL-5 = tested on: SK-MEL-5
SR = tested on: SR
IGROV-1 = tested on: IGROV-1
SNB-19 = tested on: SNB-19
OVCAR-8 = tested on: OVCAR-8
HOP-92 = tested on: HOP-92
HOP-62 = tested on: HOP-62
NCI-H23 = tested on: NCI-H23
LOX IMVI = tested on: LOX IMVI
SN12C = tested on: SN12C
SK-OV-3 = tested on: SK-OV-3
EKVX = tested on: EKVX
A498 = tested on: A498
SNB-78 = tested on: SNB-78
RXF 393 = tested on: RXF 393
MCF7 = tested on: MCF7
PC-3 = tested on: PC-3
T47D = tested on: T47D
NCI/ADR-RES = tested on: NCI/ADR-RES
MDA-MB-231 = tested on: MDA-MB-231
MDA-N = tested on: MDA-N
BT-549 = tested on: BT-549
DU-145 = tested on: DU-145

Measured: GI50

NCCCOc1ccc([N+](=O)[O-])cc1Cl
> 100 µM: HCT-15
inactive: UACC-257 > 100 µM | HL-60 > 100 µM | UO-31 81.8 µM | SF-268 > 100 µM | SF-295 > 100 µM | CCRF-CEM 42.9 µM | DLD-1 > 100 µM | SNB-75 61.1 µM | KM-20L2 > 100 µM | HCC 2998 > 100 µM | SK-MEL-2 > 100 µM | ACHN > 100 µM | TK-10 > 100 µM | OVCAR-3 > 100 µM | XF498 > 100 µM | SK-MEL-28 > 100 µM | M19-MEL > 100 µM | K562 85.9 µM | LXFL 529 67.3 µM | RPMI-8226 51.8 µM | A549 > 100 µM | COLO 205 > 100 µM | OVCAR-4 > 100 µM | CAKI-1 28.1 µM | NCI-H460 > 100 µM | HCT-116 > 100 µM | NCI-H226 > 100 µM | UACC-62 > 100 µM | M14 > 100 µM | HT-29 > 100 µM | SF-539 > 100 µM | DMS-273 > 100 µM | MOLT-4 > 100 µM | 786-0 > 100 µM | Malme-3M > 100 µM | KM12 > 100 µM | SW-620 > 100 µM | DMS-114 > 100 µM | NCI-H522 5.62 µM | OVCAR-5 > 100 µM | U-251 > 100 µM | SK-MEL-5 > 100 µM | SR > 100 µM | IGROV-1 > 100 µM | SNB-19 > 100 µM | OVCAR-8 > 100 µM | HOP-92 68.9 µM | HOP-62 71.1 µM | NCI-H23 > 100 µM

O=C(c1nc2ccc(Cl)cc2nc1O)C(O)c1ccccc1 (centres undefined)
98.6 µM: HCT-15
inactive: UACC-257 > 100 µM | LOX IMVI 34.8 µM | HL-60 9.86 µM | UO-31 > 100 µM | SF-268 77.1 µM | SF-295 > 100 µM | CCRF-CEM 2.32 µM | DLD-1 > 100 µM | KM-20L2 76 µM | HCC 2998 > 100 µM | SK-MEL-2 > 100 µM | ACHN 39 µM | TK-10 > 100 µM | OVCAR-3 32.8 µM | SN12C > 100 µM | SK-MEL-28 68.7 µM | M19-MEL > 100 µM | K562 21.8 µM | SK-OV-3 > 100 µM | LXFL 529 32.7 µM | RPMI-8226 3.85 µM | EKVX 22 µM | A549 35.2 µM | COLO 205 > 100 µM | OVCAR-4 14.3 µM | CAKI-1 65.5 µM | NCI-H460 > 100 µM | HCT-116 > 100 µM | NCI-H226 84.7 µM | UACC-62 96.8 µM | M14 > 100 µM | HT-29 > 100 µM | SF-539 57.7 µM | DMS-273 98.6 µM | MOLT-4 13.2 µM | 786-0 > 100 µM | A498 14.8 µM | Malme-3M > 100 µM | KM12 51.2 µM | SW-620 > 100 µM | DMS-114 56.5 µM | NCI-H522 10.9 µM | OVCAR-5 > 100 µM | U-251 > 10 µM | SK-MEL-5 > 100 µM | SR 13 µM | IGROV-1 > 100 µM | SNB-19 > 100 µM | OVCAR-8 > 100 µM | HOP-92 18.2 µM | SNB-78 > 100 µM | HOP-62 > 100 µM | NCI-H23 92.9 µM

N#Cc1c(-c2ccccc2)cc(-c2ccccc2)n(C2OC(CO)C(O)C(O)C2O)c1=O (centres undefined)
inactive: LOX IMVI 61.9 µM and 63.1 µM | HL-60 43.9 µM and 44.2 µM | CCRF-CEM 59.8 µM and 47.1 µM | K562 44.2 µM and 49.7 µM | LXFL 529 68.4 µM and 97.5 µM | RPMI-8226 69.7 µM and 84.3 µM | UACC-62 86.5 µM and 84.3 µM | MOLT-4 41 µM and 38.2 µM | SR 47.3 µM

CC1=NN(C(=O)c2ccccc2O)C(=O)/C1=C/c1cccc(O)c1
1.46 µM: HCT-15
active: RXF 393 0.161 µM | LOX IMVI 0.597 µM | UO-31 0.178 µM | SF-268 0.637 µM | SF-295 0.671 µM | DLD-1 0.167 µM | SNB-75 0.258 µM | T47D 0.472 µM | SK-MEL-2 0.968 µM | ACHN 0.188 µM | OVCAR-3 0.824 µM | XF498 0.783 µM | M19-MEL 0.596 µM | K562 0.178 µM | LXFL 529 0.276 µM | MDA-N 0.603 µM | RPMI-8226 0.731 µM | BT-549 0.392 µM | A549 0.375 µM | NCI-H460 0.774 µM | HCT-116 0.244 µM | UACC-62 0.274 µM | M14 0.446 µM | SF-539 0.171 µM | 786-0 0.826 µM | A498 0.0443 µM | KM12 0.389 µM | U-251 0.277 µM | SR 0.938 µM | IGROV-1 0.198 µM | SNB-19 0.543 µM | DU-145 0.536 µM | OVCAR-8 0.571 µM | HOP-92 0.462 µM | SNB-78 0.276 µM | NCI-H23 0.405 µM
inactive: UACC-257 1.21 µM | MCF7 1.6 µM | HL-60 2.9 µM | PC-3 3.19 µM | CCRF-CEM 2.88 µM | KM-20L2 25.5 µM | HCC 2998 12.6 µM | NCI/ADR-RES 6.21 µM | TK-10 4.76 µM | SN12C 45.9 µM | MDA-MB-231 38.8 µM | SK-MEL-28 50.6 µM | SK-OV-3 2.43 µM | EKVX 2.77 µM | COLO 205 32.8 µM | OVCAR-4 2.27 µM | CAKI-1 > 100 µM | NCI-H226 8.51 µM | HT-29 39.2 µM | Malme-3M 1.94 µM | SW-620 3.49 µM | NCI-H522 1.22 µM | OVCAR-5 5.56 µM | SK-MEL-5 3.2 µM | HOP-62 1.18 µM

COc1cc2oc(-c3ccccc3)cc(=O)c2c(O)c1C
> 100 µM: HCT-15
inactive: UACC-257 > 100 µM | LOX IMVI > 100 µM | HL-60 > 100 µM | UO-31 > 100 µM | SF-268 > 100 µM | SF-295 > 100 µM | CCRF-CEM > 100 µM | DLD-1 > 100 µM | SNB-75 > 100 µM | KM-20L2 > 100 µM | HCC 2998 > 100 µM | SK-MEL-2 > 100 µM | ACHN > 100 µM | TK-10 > 100 µM | OVCAR-3 > 100 µM | SN12C > 100 µM | SK-MEL-28 > 100 µM | M19-MEL > 100 µM | K562 > 100 µM | SK-OV-3 > 100 µM | LXFL 529 > 100 µM | RPMI-8226 > 100 µM | EKVX > 100 µM | A549 > 100 µM | COLO 205 > 100 µM | OVCAR-4 > 100 µM | CAKI-1 > 100 µM | NCI-H460 > 100 µM | HCT-116 > 100 µM | NCI-H226 > 100 µM | UACC-62 > 100 µM | M14 > 100 µM | HT-29 > 100 µM | SF-539 > 100 µM | DMS-273 > 100 µM | MOLT-4 > 100 µM | 786-0 > 100 µM | A498 > 100 µM | Malme-3M > 100 µM | KM12 > 100 µM | SW-620 > 100 µM | DMS-114 > 100 µM | NCI-H522 > 100 µM | OVCAR-5 > 100 µM | U-251 > 100 µM | SK-MEL-5 > 100 µM | SR > 100 µM | IGROV-1 > 100 µM | OVCAR-8 > 100 µM | HOP-92 27.4 µM | SNB-78 > 100 µM | HOP-62 > 100 µM | NCI-H23 > 100 µM
